Source: US10800791B2, “Triazole ACC inhibitors and uses thereof” (Gilead Apollo, LLC, priority 2015, dated 2020)
Converted amounts (≈) assume the structure as drawn.

Legend:
Diplodia maydis (Dm) = test: Growth inhibition assay of fungal pathogens, Dm; assay type: cell-based; conditions: Stenocarpella maydis, 48 h, Diplodia maydis; growth inhibition at 48 hours vs 2% DMSO control; read-out: Concentration at 90% Inhibition Dm
Experimental: (§1) Compounds of the present invention were evaluated in a growth inhibition assay to determine the ability to control the growth of fungal pathogens, such as Botrtyis cinerea (Bc), Collectotrichum graminicola (Cg), Diplodia maydis (Dm), Fusarium moniliforme (Fm), Fusarium virguliforme (Fv), Phytophthora capsici (Pc), Rhizoctonia solani (Rs), and Septoria tritici (St).
(§2) Compounds to be tested were dissolved in DMSO at 2.5 mg/ml to produce compound stock solutions (“stocks”). Stocks were diluted with DMSO by a five-fold dilution in a 96-well stock plate, and two sets of final concentrations of 50, 10, and 2 ppm or 2, 0.4, and 0.08 ppm were obtained in vitro. A set of positive controls was also prepared, with various concentrations of Soraphen (2, 0.4, and 0.08 ppm), Metalaxyl (1.1, 0.22, and 0.04 ppm), and Metconazole (2, 0.4, and 0.08 ppm or 0.2, 0.04, and 0.008 ppm) after the five-fold dilutions. Negative controls on each plate included 2% DMSO, water, and a blank (media+2% DMSO).
(§3) Fungal spores were isolated from previously sub-cultured plates of Botrtyis cinerea (Bc), Collectotrichum graminicola (Cg), Diplodia maydis (Dm), Fusarium moniliforme (Fm), Fusarium virguliforme (Fv), Phytophthora capsici (Pc), and Septoria tritici (St). The isolated spores were diluted to individual concentrations with a 17% V8 liquid media. For Rhizoctonia solani (Rs) and Pythium irregulare, 1.5 mm mycelial plugs were used in place of spores and/4 Potato Dextrose Broth (PDB) was used for dilution. The spore concentrations and plug sizes were based on growth curves generated at 48 hours for each pathogen.
(§4) In a second 96-well plate, the spores or mycelial plugs, media, diluted compound solutions, and controls were combined. Once the compound was added, a true final concentration of compound in each well was measured by an OD600 reading, which adjusted for any compound precipitation that might have occurred in the well. Plate readings were repeated at both 24 and 48 hours. The blank negative control was used as a background subtraction. Additional visual ratings were performed at both 24 and 48 hours for checking on precipitation and confirming efficacy. Visual and OD600 ratings of the compounds at 48 hours were compared to the 2% DMSO negative control, and the percent of pathogen growth inhibition was determined based on those values.

Rhizoctonia solani (Rs) = test: Growth inhibition assay of fungal pathogens, Rs; assay type: cell-based; conditions: 48 h, mycelial plugs, growth inhibition at 48 hours vs 2% DMSO control, read-out: Concentration at 90% Inhibition Rs
Experimental: as §1, §2, §3, §4

Botrtyis cinerea (Bc) = test: Growth inhibition assay of fungal pathogens, Bc; assay type: cell-based; conditions: 48 h, Botrtyis cinerea; growth inhibition at 48 hours vs 2% DMSO control; read-out: Concentration at 90% Inhibition Bc
Experimental: as §1, §2, §3, §4

[1] = tested on: Phytophthora capsici (Pc); test: Growth inhibition assay of fungal pathogens, Pc; assay type: cell-based; conditions: 48 h, growth inhibition at 48 hours vs 2% DMSO control, read-out: Concentration at 90% Inhibition Pc
Experimental: as §1, §2, §3, §4

[2] = tested on: Fusarium virguliforme (Fv); test: Growth inhibition assay of fungal pathogens, Fv; assay type: cell-based; conditions: 48 h, growth inhibition at 48 hours vs 2% DMSO control, read-out: Concentration at 90% Inhibition Fv
Experimental: as §1, §2, §3, §4

C. parapsilosis = test: Antifungal Activity Assay (broth microtiter MIC), C. parapsilosis; assay type: cell-based, Candida parapsilosis; conditions: Lodderomyces parapsilosis, ATCC22019, 48 h, Table 3b (additional results); ATCC 22019; 3 replicates; MIC recorded at 48 h; read-out: MIC, C. parapsilosis ATCC 22019
Outline: (§5)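 Broth microdilution per CLSI M27-A3 in RPMI 1640+MOPS, inoculum 2.5×10^3 CFU/mL final from overnight Sabouraud dextrose agar cultures at 35° C. Compounds diluted from DMSO stock to 128 μg/mL in water. MIC read visually versus growth control at 48 h.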

Septoria tritici (St) = test: Growth inhibition assay of fungal pathogens, St; assay type: cell-based; conditions: Zymoseptoria tritici, 48 h, Septoria tritici; growth inhibition at 48 hours vs 2% DMSO control; read-out: Concentration at 90% Inhibition St
Experimental: as §1, §2, §3, §4

[3] = tested on: Fusarium moniliforme (Fm); test: Growth inhibition assay of fungal pathogens, Fm; assay type: cell-based; conditions: Fusarium verticillioides, 48 h, Fusarium moniliforme; growth inhibition at 48 hours vs 2% DMSO control; read-out: Concentration at 90% Inhibition Fm
Experimental: as §1, §2, §3, §4

C. albicans = test: Antifungal Activity Assay (broth microtiter MIC), C. albicans; assay type: cell-based, Candida albicans; conditions: Candida albicans, ATCC90028, 48 h, Table 3b (additional results); ATCC 90028; 3 replicates; MIC recorded at 48 h; read-out: MIC, C. albicans ATCC 90028
Outline: as §5

[4] = tested on: Collectotrichum graminicola (Cg); test: Growth inhibition assay of fungal pathogens, Cg; assay type: cell-based; conditions: 48 h, Collectotrichum graminicola; growth inhibition at 48 hours vs 2% DMSO control; read-out: Concentration at 90% Inhibition Cg
Experimental: as §1, §2, §3, §4

C. krusei = test: Antifungal Activity Assay (broth microtiter MIC), C. krusei; assay type: cell-based, Candida krusei; conditions: Pichia kudriavzevii, ATCC6258, 48 h, Table 3b (additional results); ATCC 6258; 3 replicates; MIC recorded at 48 h; read-out: MIC, C. krusei ATCC 6258
Outline: as §5

human (hACC2) = human (hACC2) (Homo sapiens, UniProt O00763); test: In vitro ACC inhibition assay (ADP-Glo), hACC2; assay type: biochemical; conditions: Table 2b, additional results, 5 nM ACC2, 20 μM ATP, 20 μM acetyl-CoA
Chain of human (hACC2) (O00763 whole entry): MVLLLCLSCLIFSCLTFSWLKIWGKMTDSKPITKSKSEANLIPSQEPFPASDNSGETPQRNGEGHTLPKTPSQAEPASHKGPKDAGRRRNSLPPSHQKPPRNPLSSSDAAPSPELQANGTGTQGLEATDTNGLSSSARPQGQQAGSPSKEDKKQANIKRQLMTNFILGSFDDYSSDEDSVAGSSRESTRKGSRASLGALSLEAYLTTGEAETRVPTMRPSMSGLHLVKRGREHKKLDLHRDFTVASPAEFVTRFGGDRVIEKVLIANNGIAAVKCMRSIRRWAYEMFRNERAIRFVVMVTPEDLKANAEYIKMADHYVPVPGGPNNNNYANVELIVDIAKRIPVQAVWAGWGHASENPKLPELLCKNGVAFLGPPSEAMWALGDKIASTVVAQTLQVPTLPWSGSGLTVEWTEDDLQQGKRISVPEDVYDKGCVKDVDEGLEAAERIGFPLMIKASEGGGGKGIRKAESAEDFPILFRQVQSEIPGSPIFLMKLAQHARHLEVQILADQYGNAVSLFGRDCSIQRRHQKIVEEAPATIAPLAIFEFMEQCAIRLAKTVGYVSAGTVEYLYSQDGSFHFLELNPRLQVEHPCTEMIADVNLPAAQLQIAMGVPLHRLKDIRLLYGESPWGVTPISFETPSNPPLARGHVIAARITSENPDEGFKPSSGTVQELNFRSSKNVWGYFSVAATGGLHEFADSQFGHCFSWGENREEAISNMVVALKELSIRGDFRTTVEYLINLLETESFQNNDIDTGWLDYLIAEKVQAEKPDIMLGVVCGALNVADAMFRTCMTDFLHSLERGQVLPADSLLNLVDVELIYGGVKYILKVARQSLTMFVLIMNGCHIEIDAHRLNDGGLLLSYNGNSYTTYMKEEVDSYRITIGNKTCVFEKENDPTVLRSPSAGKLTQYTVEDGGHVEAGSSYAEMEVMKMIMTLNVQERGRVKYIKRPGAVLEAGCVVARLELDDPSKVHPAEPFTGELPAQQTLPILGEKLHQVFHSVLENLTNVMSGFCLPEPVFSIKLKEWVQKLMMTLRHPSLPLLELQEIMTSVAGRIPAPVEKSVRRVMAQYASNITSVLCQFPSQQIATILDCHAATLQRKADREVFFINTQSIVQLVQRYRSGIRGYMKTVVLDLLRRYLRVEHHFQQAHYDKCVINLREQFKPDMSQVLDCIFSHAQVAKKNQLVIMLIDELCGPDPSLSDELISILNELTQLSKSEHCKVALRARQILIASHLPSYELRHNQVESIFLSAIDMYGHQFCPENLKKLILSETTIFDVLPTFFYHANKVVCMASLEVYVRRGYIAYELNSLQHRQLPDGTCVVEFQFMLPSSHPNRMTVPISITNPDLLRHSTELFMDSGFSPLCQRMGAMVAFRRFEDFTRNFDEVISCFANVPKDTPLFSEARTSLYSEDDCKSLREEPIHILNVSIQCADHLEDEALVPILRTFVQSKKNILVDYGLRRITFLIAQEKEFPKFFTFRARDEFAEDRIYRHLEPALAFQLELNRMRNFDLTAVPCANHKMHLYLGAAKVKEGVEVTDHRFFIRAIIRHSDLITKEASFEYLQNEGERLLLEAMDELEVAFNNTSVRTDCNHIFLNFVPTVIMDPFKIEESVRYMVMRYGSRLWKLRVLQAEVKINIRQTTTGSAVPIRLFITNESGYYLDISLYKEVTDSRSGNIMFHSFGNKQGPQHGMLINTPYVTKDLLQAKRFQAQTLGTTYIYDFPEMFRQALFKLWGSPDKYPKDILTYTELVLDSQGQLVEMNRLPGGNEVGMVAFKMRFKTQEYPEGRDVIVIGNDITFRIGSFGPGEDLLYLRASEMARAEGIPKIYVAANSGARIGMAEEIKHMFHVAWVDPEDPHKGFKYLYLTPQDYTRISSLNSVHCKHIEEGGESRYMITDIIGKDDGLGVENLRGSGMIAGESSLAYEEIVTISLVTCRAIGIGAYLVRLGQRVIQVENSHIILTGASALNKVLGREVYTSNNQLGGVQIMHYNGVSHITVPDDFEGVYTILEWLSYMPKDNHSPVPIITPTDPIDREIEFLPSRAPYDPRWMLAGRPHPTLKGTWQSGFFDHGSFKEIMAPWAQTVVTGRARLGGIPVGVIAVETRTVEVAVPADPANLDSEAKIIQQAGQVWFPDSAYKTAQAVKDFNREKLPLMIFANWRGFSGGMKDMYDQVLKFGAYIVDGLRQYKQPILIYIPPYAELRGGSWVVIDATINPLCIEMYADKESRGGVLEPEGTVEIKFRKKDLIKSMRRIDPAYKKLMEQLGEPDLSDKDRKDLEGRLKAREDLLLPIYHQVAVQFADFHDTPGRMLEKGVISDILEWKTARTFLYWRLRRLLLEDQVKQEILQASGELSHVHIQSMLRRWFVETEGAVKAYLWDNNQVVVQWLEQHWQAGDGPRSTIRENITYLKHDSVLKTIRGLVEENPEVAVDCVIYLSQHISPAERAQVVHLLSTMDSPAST
Experimental: The detailed procedure is as follows. […] 10 μL ADP glo reagent was added. […] 20 μL kinase detection reagent was added.

fungal (fACC2) = fungal (fACC2) (UniProt Q00955); conditions: read-out: fACC2 (in vitro ACC2 Inhibition Assay, IC50); Table 2b, additional results; ADP-Glo, 5 nM ACC2, 20 μM ATP, 20 μM acetyl-CoA
Chain of fungal (fACC2) (Q00955 whole entry): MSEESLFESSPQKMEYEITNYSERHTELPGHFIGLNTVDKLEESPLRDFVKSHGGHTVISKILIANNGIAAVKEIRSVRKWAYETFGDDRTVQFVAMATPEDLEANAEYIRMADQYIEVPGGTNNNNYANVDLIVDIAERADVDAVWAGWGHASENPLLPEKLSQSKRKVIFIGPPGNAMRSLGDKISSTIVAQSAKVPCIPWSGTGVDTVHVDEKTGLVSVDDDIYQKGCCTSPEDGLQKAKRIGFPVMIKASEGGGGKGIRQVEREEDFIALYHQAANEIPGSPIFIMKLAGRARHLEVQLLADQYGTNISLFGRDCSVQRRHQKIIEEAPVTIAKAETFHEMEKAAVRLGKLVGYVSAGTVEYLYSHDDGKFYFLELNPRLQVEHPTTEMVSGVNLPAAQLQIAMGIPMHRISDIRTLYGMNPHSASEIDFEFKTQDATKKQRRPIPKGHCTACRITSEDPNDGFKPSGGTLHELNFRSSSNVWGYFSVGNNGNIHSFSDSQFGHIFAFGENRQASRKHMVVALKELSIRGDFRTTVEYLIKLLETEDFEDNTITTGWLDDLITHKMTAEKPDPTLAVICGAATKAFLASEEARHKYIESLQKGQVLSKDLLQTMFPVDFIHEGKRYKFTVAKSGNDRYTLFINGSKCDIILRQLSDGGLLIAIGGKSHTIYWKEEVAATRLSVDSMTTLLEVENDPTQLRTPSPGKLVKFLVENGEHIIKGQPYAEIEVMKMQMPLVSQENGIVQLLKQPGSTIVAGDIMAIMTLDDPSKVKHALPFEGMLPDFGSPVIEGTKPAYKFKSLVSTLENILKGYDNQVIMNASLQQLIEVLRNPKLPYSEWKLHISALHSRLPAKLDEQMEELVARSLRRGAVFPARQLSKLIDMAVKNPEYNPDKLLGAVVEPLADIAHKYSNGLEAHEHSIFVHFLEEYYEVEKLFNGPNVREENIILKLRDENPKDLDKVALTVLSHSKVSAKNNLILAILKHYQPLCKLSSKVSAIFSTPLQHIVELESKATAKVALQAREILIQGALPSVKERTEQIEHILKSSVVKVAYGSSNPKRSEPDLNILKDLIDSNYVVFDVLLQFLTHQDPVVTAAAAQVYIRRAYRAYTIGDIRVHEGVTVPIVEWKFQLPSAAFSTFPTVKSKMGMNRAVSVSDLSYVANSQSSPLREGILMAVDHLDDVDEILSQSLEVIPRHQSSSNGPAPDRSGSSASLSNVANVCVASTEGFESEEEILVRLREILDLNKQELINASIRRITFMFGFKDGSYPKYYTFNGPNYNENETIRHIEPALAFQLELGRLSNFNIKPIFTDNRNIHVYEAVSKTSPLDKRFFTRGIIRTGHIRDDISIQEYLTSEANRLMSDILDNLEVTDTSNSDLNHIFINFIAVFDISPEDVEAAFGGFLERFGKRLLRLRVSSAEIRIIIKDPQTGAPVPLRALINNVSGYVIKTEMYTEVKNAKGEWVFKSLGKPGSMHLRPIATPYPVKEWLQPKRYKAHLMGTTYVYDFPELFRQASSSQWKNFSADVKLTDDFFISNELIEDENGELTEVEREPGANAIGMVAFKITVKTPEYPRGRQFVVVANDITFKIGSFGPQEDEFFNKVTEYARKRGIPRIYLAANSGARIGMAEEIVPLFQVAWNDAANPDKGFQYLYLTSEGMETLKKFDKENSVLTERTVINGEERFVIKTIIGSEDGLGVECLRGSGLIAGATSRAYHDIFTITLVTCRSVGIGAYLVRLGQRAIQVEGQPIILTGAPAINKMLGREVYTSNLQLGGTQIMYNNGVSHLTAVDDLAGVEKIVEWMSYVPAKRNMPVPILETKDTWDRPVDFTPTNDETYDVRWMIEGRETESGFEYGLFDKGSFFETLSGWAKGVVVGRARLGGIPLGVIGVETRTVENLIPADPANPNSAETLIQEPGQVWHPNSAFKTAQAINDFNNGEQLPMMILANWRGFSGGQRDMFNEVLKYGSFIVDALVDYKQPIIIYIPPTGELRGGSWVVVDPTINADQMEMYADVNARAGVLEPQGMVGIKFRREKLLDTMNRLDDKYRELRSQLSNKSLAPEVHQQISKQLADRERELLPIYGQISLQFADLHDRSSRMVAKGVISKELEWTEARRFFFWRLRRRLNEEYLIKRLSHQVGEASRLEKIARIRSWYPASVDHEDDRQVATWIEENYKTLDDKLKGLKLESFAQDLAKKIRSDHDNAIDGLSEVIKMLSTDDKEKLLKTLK

MIC (C. parapsilosis) [µg/mL] | MIC (C. albicans) [µg/mL] | MIC (C. krusei) [µg/mL] | IC50 (human (hACC2)) [nM] | SMILES | IC90 (Diplodia maydis (Dm)) [µg/mL] | IC90 (Rhizoctonia solani (Rs)) [µg/mL] | IC90 (Botrtyis cinerea (Bc)) [µg/mL] | IC90 [1] [µg/mL] | IC90 [2] [µg/mL] | IC90 (Septoria tritici (St)) [µg/mL] | IC90 [3] [µg/mL] | IC90 [4] [µg/mL] | IC50 (fungal (fACC2)) [nM]
1.01 to 2 (≈ 1.88 to 3.71 µM) | 1.01 to 2 (≈ 1.88 to 3.71 µM) | 1.01 to 2 (≈ 1.88 to 3.71 µM) | 10 to 40 | COc1ccccc1[C@@H](O)Cn1c(=O)n(C(C)(C)C(=O)N2CCCC2)c(=O)c2c(C)c(-n3nccn3)sc21 [Compound I-189] | > 50 | 0.08 (≈ 0.149 µM) | 10 (≈ 18.6 µM) | > 50 | 10 (≈ 18.6 µM) | > 50 | 10 (≈ 18.6 µM) | > 50 | 
1.01 to 2 (≈ 1.87 to 3.7 µM) | 1.01 to 2 (≈ 1.87 to 3.7 µM) | 1.01 to 2 (≈ 1.87 to 3.7 µM) | 5 to 10 | COc1ccc(F)cc1[C@@H](O)Cn1c(=O)n([C@@H](C)C(=O)N2CC=CC2)c(=O)c2c(C)c(-n3nccn3)sc21 [Compound I-193] | > 50 | 2 (≈ 3.7 µM) | 10 (≈ 18.5 µM) | > 50 | 2 (≈ 3.7 µM) | > 50 | 2 (≈ 3.7 µM) | 10 (≈ 18.5 µM) | 

SMILES | MIC (C. parapsilosis) [µg/mL] | MIC (C. albicans) [µg/mL] | MIC (C. krusei) [µg/mL] | IC50 (human (hACC2)) [nM] | IC90 (Diplodia maydis (Dm)) [µg/mL] | IC90 (Rhizoctonia solani (Rs)) [µg/mL] | IC90 (Botrtyis cinerea (Bc)) [µg/mL] | IC90 [1] [µg/mL] | IC90 [2] [µg/mL] | IC90 (Septoria tritici (St)) [µg/mL] | IC90 [3] [µg/mL] | IC90 [4] [µg/mL] | IC50 (fungal (fACC2)) [nM]
COc1ccc(F)cc1[C@@H](Cn1c(=O)n(C(C)(C)C(=O)NC(C)C)c(=O)c2c(C)c(-n3nccn3)sc21)OC(C)=O [Compound I-259] |  |  |  | 5 to 10 | 0.4 (≈ 0.682 µM) | 0.08 (≈ 0.136 µM) | 0.4 (≈ 0.682 µM) | > 50 | 0.08 (≈ 0.136 µM) | > 50 | 0.08 (≈ 0.136 µM) | 0.4 (≈ 0.682 µM) | 1 to 5
